Laboratory results published in patent publication US20130137084A1, “Single Nucleotide Polymorphism on Chromosome 15 That Predicts HCV Treatment Responses” (Roche Molecular Systems, Inc., priority 2011, published 2013).

Assays:
[1] = tested on: chronic Hepatitis C genotype 1 infection; assay: Study NV21075 Phase 2 clinical study, virological response (undetectable HCV RNA) during the first 12 weeks of treatment; type: in vivo, human patients; settings: for percentage of patients with undetectable HCV RNA levels at the end of 12 weeks of treatment: limit of detection 15 IU/mL, preliminary interim analysis
From the text: Study NV21075 was a randomized double-blinded multicenter Phase 2 clinical study to evaluate the efficacy and safety of danoprevir in combination with peginterferon alfa 2a and ribavirin (triple therapy combination) when dosed for twelve weeks in treatment-naïve patients with chronic Hepatitis C genotype 1 infection as compared to the currently approved combination of peginterferon alfa 2a and ribavirin (Standard of Care or SOC). Patients enrolled in Study NV21075 were randomized into one of four treatment groups (FIG. 1) (approximately 60 patients for Groups A-C, approximately 30 patients for Group D). In the response-guided treatment groups (as described below), patients with an extended RVR (eRVR, defined as undetectable HCV RNA from […]) stopped all therapy at Week 24.
Patients received double blinded experimental treatment with danoprevir at 300 mg TID (Group A), 600 mg BID (Group B), or 900 mg BID (Group C) and standard of care treatment (SOC, Pegasys 180 μg sc qw+Copegus 1000 mg (<75 kg) or 1200 mg (≧75 kg) po qd) for 12 weeks, followed by SOC for 12 weeks. Patients who achieve an RVR, defined as undetectable HCV RNA at week 4, and remain undetectable through week 22 (i.e. achieving eRVR) stopped all treatment at week 24. […] Treatment Group D: Patients received double blinded placebo treatment for 12 weeks, followed by SOC for 36 weeks for a total duration of 48 weeks.
For the interim analysis of NV21075, efficacy during the first 12 weeks of treatment was measured by the percentage of patients with virological response (undetectable HCV RNA as measured by the Roche Cobas® AmpliPrep/Cobas® Taqman® HCV Test v1.0 [limit of detection 15 IU/mL]). Patients were considered non-responders at a scheduled visit if they had missing data, which may have been due to an assessment that was missed or fell outside of the allowable window for that visit, or an early withdrawal from treatment with a missing follow-up assessment.

HCV = settings: RBV monotherapy; cited from earlier work

CC(C)(C)OC(=O)N[C@H]1CCCCC/C=C\[C@@H]2C[C@@]2(C(=O)NS(=O)(=O)C2CC2)NC(=O)[C@@H]2C[C@@H](OC(=O)N3Cc4cccc(F)c4C3)CN2C1=O [Danoprevir, 4-Fluoro-1,3-dihydro-isoindole-2-carboxylic acid (Z)-(1S,4R,6S,14S,18R)-14-tert-butoxycarbonylamino-4-cyclopropanesulfonylaminocarbonyl-2,15-dioxo-3,16-diaza-tricyclo[14.3.0.0*4,6*]nonadec-7-en-18-yl ester]
percentage of patients with undetectable HCV RNA levels at the end of 12 weeks of treatment ([1]; Treatment Group A: danoprevir 300 mg TID plus SOC): 88.1% | percentage of patients with undetectable HCV RNA levels at the end of 12 weeks of treatment ([1]; Treatment Group B: danoprevir 600 mg BID plus SOC): 89.2% | percentage of patients with undetectable HCV RNA levels at the end of 12 weeks of treatment ([1]; Treatment Group C: danoprevir 900 mg BID plus SOC): 92.0% | change in mean HCV RNA levels ([1]; danoprevir plus SOC, within the first 2 to 4 weeks of treatment, remained lower than SOC up to Week 12): precipitous decline

NC(=O)c1ncn([C@@H]2O[C@H](CO)[C@@H](O)[C@H]2O)n1 [ribavirin, 1-((2R,3R,4S,5R)-3,4-Dihydroxy-5-hydroxymethyl-tetrahydro-furan-2-yl)-1H-[1,2,4]triazole-3-carboxylic acid amide]
effect on the replication of HCV (HCV): little or no effect
